Results from patent US20120148638A1, “Steroid Solavates” (BREATH LIMITED, priority 2009, published 2012).

Columns and labels:
[1] = Dry Sympatec PSD analysis (particle size distribution); assay type: physicochemical; details: after isolation
Description: Particle size or particle diameter as used herein can be suitably determined by laser diffraction based methods, for example as described in ISO Standard 13320-1. Laser diffraction particle sizing apparatus such as the Malvern Mastersizer 2000™ can be used.

[2] = Effect of humidity on prolonged storage: 20% relative humidity for 48 hours; DVS, DSC, TGA, PSD, SEM; assay type: physicochemical; details: for DVS mass plot, change of mass during storage: 20% RH, 48 hours; for Particle Size, cumulative distribution Q3 X10, post-storage sample / Particle Size, cumulative distribution Q3 X50, post-storage sample / Particle Size, cumulative distribution Q3 X90, post-storage sample: dry Sympatec PSD
Method: In order to evaluate the effect of humidity on prolonged storage, processed BDP heptane solvate was subjected to 20% relative humidity (RH) for 48 hours.
The sample recovered after storage was analysed by DSC, TGA, PSD and SEM.
In order to evaluate the effect of humidity on prolonged storage processed BDP hydrate was subjected to 20% relative humidity (RH) for 48 hours.

| Compound | Particle Size, cumulative distribution Q3 X10 [1] | Particle Size, cumulative distribution Q3 X50 [1] | Particle Size, cumulative distribution Q3 X90 [1] | Particle size distribution, result in words [1] | DVS mass plot, change of mass during storage ([2]; listed as processed BDP heptane) | Particle Size, cumulative distribution Q3 X10, post-storage sample ([2]; after 20% RH for 48 hours) | Particle Size, cumulative distribution Q3 X50, post-storage sample ([2]; after 20% RH for 48 hours) | Particle Size, cumulative distribution Q3 X90, post-storage sample ([2]; after 20% RH for 48 hours) | DSC trace of stored sample, thermal behaviour post-humidity treatment ([2]; after 20% RH for 48 hours, listed as BDP heptane solvate) | Time to steady state of sample mass (DVS) ([2]; 20% RH storage) | DVS mass plot, change of mass during storage [2] | DSC trace of stored sample, thermal behaviour post-humidity treatment ([2]; after 20% RH for 48 hours) | PSD variation of particle size after storage ([2]; after 20% RH for 48 hours) |
| --- | --- | --- | --- | --- | --- | --- | --- | --- | --- | --- | --- | --- | --- |
| CCC(=O)OCC(=O)[C@@]1(OC(=O)CC)[C@@H](C)C[C@H]2[C@@H]3CCC4=CC(=O)C=C[C@]4(C)[C@@]3(Cl)[C@@H](O)C[C@@]21C.O [Comparative Example 1, beclomethasone diproprionate, reference compound] | 0.84 μ | 3.58 μ | 8.76 μ | mostly ˜4 μm particles alongside larger clusters or agglomerates larger than 20 μm | – | – | – | – | – | – | – | – | – |
| CCC(=O)OCC(=O)[C@@]1(OC(=O)CC)[C@@H](C)C[C@H]2[C@@H]3CCC4=CC(=O)C=C[C@]4(C)[C@@]3(Cl)[C@@H](O)C[C@@]21C.O [Comparative Example 2, beclomethasone diproprionate, reference compound] | 1.78 μ | 8.10 μ | 15.10 μ | – | – | – | – | – | – | – | – | – | – |
| CCC(=O)OCC(=O)[C@@]1(OC(=O)CC)[C@@H](C)C[C@H]2[C@@H]3CCC4=CC(=O)C=C[C@]4(C)[C@@]3(Cl)[C@@H](O)C[C@@]21C.O [Example 1, beclomethasone diproprionate] | 0.69 μ | 2.41 μ | 4.67 μ | within the inhalation range | maintained full stability in terms of change of mass | 0.68 μ | 2.44 μ | 5.29 μ | no variation in the thermal behaviour | – | – | – | – |
| CCC(=O)OCC(=O)[C@@]1(OC(=O)CC)[C@@H](C)C[C@H]2[C@@H]3CCC4=CC(=O)C=C[C@]4(C)[C@@]3(Cl)[C@@H](O)C[C@@]21C.O [Example 3, beclomethasone diproprionate] | 0.51 μ | 1.35 μ | 3.17 μ | well within the inhalation range | – | 0.51 μ | 1.37 μ | 2.95 μ | – | about 1500 minutes | initially underwent considerable weight loss due to partial dehydration | no variation in the thermal behavior | no significant variation of particle size |
